Source: EP4678629A1, “IONIZABLE LIPID MOLECULE, PREPARATION METHOD THEREFOR AND USE THEREOF” (Maxirna (Shanghai) Pharmaceutical Co., Ltd., priority 2023, dated 2024)

Columns and labels:
[1] = Encapsulation efficiency of the lipid nanoparticle (eGFP mRNA) by Ribogreen method; format: physicochemical; details: LNP encapsulating eGFP mRNA, ionizable lipid/DOPE/cholesterol/DMG-PEG2000 50/10/48.25/1.25 mol%, N/P 12
In short: (§1)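 LNPs were made by microfluidic mixing of ionizable lipid/DOPE/cholesterol/DMG-PEG2000 (50/10/48.25/1.25 mol%) in ethanol with eGFP mRNA in 20 mM citrate pH 6.1, N/P 12, then ultrafiltered into DPBS and 0.2 µm filtered. Size and PDI by DLS at 173° backscatter; encapsulation by Ribogreen.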

[2] = Size and polydispersity index (PDI) of the lipid nanoparticle by dynamic light scattering; format: physicochemical; details: LNP encapsulating eGFP mRNA, ionizable lipid/DOPE/cholesterol/DMG-PEG2000 50/10/48.25/1.25 mol%, N/P 12; for Particle size: in nm (unit assumed)
In short: as §1

[3] = In vitro transfection of cells with eGFP-mRNA lipid nanoparticle (LNP preparation), fluorescence imaging and flow cytometry; format: cell-based, mouse; details: mouse, dc2.4 cells, 200 ng of mRNA per well, after 24 hours; read-out: Cell viability, %
In short: (§2)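 Mouse bone marrow-derived DC2.4 dendritic cells seeded at 2 × 10^5 cells/well in DMEM with 10% FBS, transfected with eGFP-mRNA LNPs the next day at 37 °C, 5% CO2. After 24 hours, viability, eGFP-positive rate and mean fluorescence intensity read by fluorescence imaging and flow cytometry.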

DC2.4 cells = experiment: as above; format: cell-based, mouse; details: eGFP positivity rate, DC2.4 cells, 200 ng of mRNA per well, after 24 hours
In short: as §2

Encapsulation rate, % [1] [%] | Particle size [2] | PDI [2] | SMILES | viability at 24 h [3] [%] | Positive rate, % (DC2.4 cells) [%]
99.14 | 99.14 |  | CCCCC/C=C\C/C=C\CCCCCCCCOC(=O)CCCN(CCO)CCCN(CCCC(=O)OCCCCCCCC/C=C\C/C=C\CCCCC)CCCC(=O)OCCCCCCCC/C=C\C/C=C\CCCCC [Example 80, Di((9Z,12Z)-octadeca-9,12-dien-1-yl)4,4'-((3-((2-hydroxyethyl)(4-(((9Z,12Z)-octadeca-9,12-dien-1-yl)oxo)-4-oxobutyl)amino)propyl)azanediyl)dibutanoate] | 87.3 | 94.60
99.74 | 99.74 | 92.91 | CCCCCCCCCCCOC(=O)CCCN(CCCO)CCCCN(CCCC(=O)OCCCCCCCCCCC)CCCC(=O)OCCCCCCCCCCC [Example 82, Diundecyl 4,4'-((4-((3-hydroxypropyl)(4-oxo-4-(undecyloxy)butyl)amino)butyl)azanediyl)dibutanoate] | 76 | 96.72
99.79 | 99.79 | 73.54 | CCCCCCCCCCCOC(=O)CCCN(CCCO)CCCCCN(CCCC(=O)OCCCCCCCCCCC)CCCC(=O)OCCCCCCCCCCC [Example 83] | 84.2 | 97.05
94.50 | 88.62 | 0.13 | CCCCCCCCCCOC(=O)CCCN(CCCO)CCCCN(CCCC(=O)OCCCCCCCCCC)CCCC(=O)OCCCCCCCCCC [Example 86] | 93 | 94.18
92.26 | 72.55 | 0.12 | CCCCCCCCCCCOC(=O)CCCN(CCO)CCCCN(CCCC(=O)OCCCCCCCCCCC)CCCC(=O)OCCCCCCCCCCC [Example 87] | 97.5 | 96.15
93.28 | 98.21 | 0.17 | CCCCCCCCCCOC(=O)CCCN(CCO)CCCN(CCCC(=O)OCCCCCCCCCC)CCCC(=O)OCCCCCCCCCC [Example 93, Decyl 4-(20-(2-hydroxyethyl)-12,24-dioxo-16,20-diaza-11,25-dioxapentatriacontane-16-yl)butanoate] | 82.6 | 85.37
96.63 |  | 0.19 | CCCCCCCCCCCCOC(=O)CCCN(CCO)CCCN(CCCC(=O)OCCCCCCCCCCCC)CCCC(=O)OCCCCCCCCCCCC [Example 94, Dodecyl 4-(22-(2-hydroxyethyl)-14,26-dioxo-18,22-diaza-13,27-dioxanonatriacontane-18-yl)butanoate] | 98.6 | 88.07
92.93 |  | 0.11 | CCCCC/C=C\C/C=C\CCCCCCCCOC(=O)CCCCCCCN(CCCO)CCCN(CCCCCCCC(=O)OCCCCCCCC/C=C\C/C=C\CCCCC)CCCCCCCC(=O)OCCCCCCCC/C=C\C/C=C\CCCCC [Example 95] | 95.9 | 93.13
91.32 | 89.51 | 0.14 | CCCCCCCCCCCOC(=O)CCCCCCCN(CCCCCCCC(=O)OCCCCCCCCCCC)CCCN(CCCO)CCCN(CCCCCCCC(=O)OCCCCCCCCCCC)CCCCCCCC(=O)OCCCCCCCCCCC [Example 98, Tetraundecyl 8,8',8",8"-(((3-hydroxypropyl)azanediyl)di(propane-3,1-diyl))di(azanetriyl)tetraoctanoate] | 96.9 | 92.36
92.32 |  | 0.16 | CCCCCCCCCCCCCOC(=O)CCCN(CCCO)CCCCCN(CCCC(=O)OCCCCCCCCCCCCC)CCCC(=O)OCCCCCCCCCCCCC [Example 100, 4,4'-ditridecyl((5-((3-hydroxypropyl)(4-oxo-4-(tridecyloxy)butyl)amino)pentyl)azetidinyl)dibutanoate] | 99 | 93.24
92.68 |  | 0.14 | CCCCCCCCCCCCCOC(=O)CCCN(CCCO)CCCCN(CCCC(=O)OCCCCCCCCCCCCC)CCCC(=O)OCCCCCCCCCCCCC [Example 101, 4,4'-ditridecyl((4-((3-hydroxypropyl)(4-oxo-4-(tridecyloxy)butyl)amino)butyl)azetidinyl)dibutanoate] | 93.4 | 94.85
94.31 | 94.10 | 0.14 | CCCCCCCCCCCCOC(=O)CCCN(CCCO)CCCCN(CCCC(=O)OCCCCCCCCCCCC)CCCC(=O)OCCCCCCCCCCCC [Example 103] | 95.3 | 93.80
95.12 |  | 0.16 | CCCCC/C=C\C/C=C\CCCCCCCCOC(=O)CCCN(CCCO)CCCCN(CCCC(=O)OCCCCCCCC/C=C\C/C=C\CCCCC)CCCC(=O)OCCCCCCCC/C=C\C/C=C\CCCCC [Example 104] | 96.7 | 92.63
65.99 |  | 0.28 | CCCCCCCCCCCOC(=O)/C=C/CN(C/C=C/C(=O)OCCCCCCCCCCC)CCCN(C/C=C/C(=O)OCCCCCCCCCCC)CCCO [Example 106] | 93.9 | 78.77
95.47 |  | 0.13 | CCCCCCCCCCCOC(=O)CCCCN(CCO)CCCN(CCCCC(=O)OCCCCCCCCCCC)CCCCC(=O)OCCCCCCCCCCC [Example 107] | 92.9 | 92.10
92.30 | 95.34 | 0.13 | CCCCC/C=C\C/C=C\CCCCCCCCOC(=O)CCCN(CCCO)CCCN(CCCC(=O)OCCCCCCCC/C=C\C/C=C\CCCCC)CCCC(=O)OCCCCCCCC/C=C\C/C=C\CCCCC [Example 108] | 92.3 | 93.99
79.70 |  | 0.33 | CCCCCCCCCCCOC(=O)CCCN(CCO)CCCN(CCCC(=O)OCCCCCCCCCCC)C(=O)CCC(=O)OCCCCCCCCCCC [Example 109] | 89 | 71.17
92.91 | 96.92 | 0.12 | CCCCC/C=C\C/C=C\CCCCCCCCOC(=O)CCCCN(CCCO)CCCN(CCCCC(=O)OCCCCCCCC/C=C\C/C=C\CCCCC)CCCCC(=O)OCCCCCCCC/C=C\C/C=C\CCCCC [Example 111] | 91 | 95.82
91.22 | 89.42 | 0.11 | CCCCCCCCCCCCOC(=O)CCCN(CCCO)CCCN(CCCC(=O)OCCCCCCCCCCCC)CCCC(=O)OCCCCCCCCCCCC [Example 112, 4,4'-didodecyl((3-((4-(dodecoxy)-4-oxobutyl)(3-hydroxypropyl)amino)propyl)azetidinyl)dibutanoate] | 92.3 | 95.39
91.23 | 88.62 | 0.14 | CCCCCCCCCCOC(=O)CCCN(CCCO)CCCN(CCCC(=O)OCCCCCCCCCC)CCCC(=O)OCCCCCCCCCC [Example 113, Didecyl 4,4'-((3-((4-(decyloxy)-4-oxobutyl)(3-hydroxypropyl)amino)propyl)azetidinyl)dibutanoate] | 93.2 | 92.51
92.78 | 89.25 | 0.16 | CCCCC/C=C\C/C=C\CCCCCCCCOC(=O)CCCCCCN(CCCO)CCCN(CCCCCCC(=O)OCCCCCCCC/C=C\C/C=C\CCCCC)CCCCCCC(=O)OCCCCCCCC/C=C\C/C=C\CCCCC [Example 114] | 93.4 | 91.74
